Data taken from article PMC9504289 (Pharmaceuticals, 2022).

The molecules below were run on mutant spike proteins including D614G, delta (B.1.617.2), and omicron (B.1.1.529) – hACE2. Settings: read-out: IC50 in all assays with mutant spike proteins.
Format: binding, SARS-CoV-2, human

SMILES	IC50 [nM]
O=C(Nc1ccc(-c2ccc(C(=O)Nc3cccc4cc(S(=O)(=O)O)ccc34)cc2)cc1)c1ccc([N+](=O)[O-])cc1 [DRI-C23041]	< 3000
O=C(Nc1ccc(-c2ccc(C(=O)Nc3cccc4c(S(=O)(=O)O)cccc34)cc2)cc1)c1ccc([N+](=O)[O-])cc1 [DRI-C24041]	< 3000
O=S(=O)(O)c1ccc(/N=N/c2c(O)ccc3cc(S(=O)(=O)O)ccc23)cc1 [Sunset yellow, sunset yellow FCF]	> 500000
